Measured values reported in patent EP2910557A1, “Enantiopure tetrasubstituted pyrrolidines as scaffolds for proteasome inhibitors and medicinal applications thereof” (Ikerchem, S.L., priority 2014, dated 2015).
pEC50, pIC50: −log10 of the molar value.

Columns and labels:
[1] = target: T1, Human erythrocyte 20S proteasome (Homo sapiens, UniProt P28074); experiment: In vitro enzymatic assay of proteasome inhibitory activity (Suc-Leu-Leu-Val-Tyr-AMC substrate); format: biochemical; settings: for pIC50: human erythrocyte 20S proteasome, 10 µM Suc-Leu-Leu-Val-Tyr-AMC, 37°C; for inhibition at 0.05 µM: Concentration 50 nM
T1 construct: Enzyme: Human erythrocyte 20S proteasome; from tissue; host or cells: human erythrocytes
Experimental: Example 20: In vitro enzymatic assay of proteasome inhibitory activity.
Substrate: Suc-Leu-Leu-Val-Tyr-AMC
Assay buffer: 250 mM HEPES, pH 7.5, 0.5 mM EDTA, 0.03% SDS, 0.05% Igepal CA-630.
Enzyme: Human erythrocyte 20S proteasome
In vitro proteasome inhibitory activity of the compounds of the invention is evaluated by spectrofluorimetric quantitation of AMC. Stock solutions of compounds of the invention are prepared in dimethyl sulphoxide (DMSO). Test compound and/or vehicle is preincubated with […] enzyme (human erythrocyte 20S proteasome) in modified HEPES buffer pH 7.5 and 1% final concentration of DMSO for 15 minutes at 37°C. The reaction is initiated by addition of 10 µM Suc-Leu-Leu-Val-Tyr-AMC for another 30 minutes incubation period at 37°C. Determination of the release of AMC is read spectrophotometrically (excitation, 380 nm; emission, 460 nm). IC50 values are determined by a non-linear, least squares regression analysis using MathlQTM (ID Business Solutions Ltd., UK).

A431 = experiment: Cancer cell growth inhibition, 72 h treatment; format: cell-based; settings: Homo sapiens, A-431, Epidermoid A431, Alamar Blue
Experimental: (§1) Cell culture-based assays were used to evaluate the ability of compounds of the invention to inhibit cancer cell growth.
(§2) Cells were obtained from the American Type Culture Collection (ATCC) and the European Collection of Cell Cultures. Cells were thawed in their appropriate media plus supplements (see table below). Cells were passaged at confluence by washing once in HBSS cation-free followed by a 3 minutes incubation with trypsin ([0.5 µg/ml]/EDTA [0.2 µg/ml]) (Gibco-BRL, 15400054) solution in HBSS at 37°C (except non-adherent cell lines - hematologic), and transferred to their appropriate media plus supplements. Prior to seeding at defined cell concentration, cells were recovered in medium, centrifuged, taken up in medium and counted.
(§3) All treatments were performed in triplicate. Experiments were carried out in 96-well cell culture plates (Cultek) and the cell lines seeded at the density mentioned in the table above and cultured at 37°C with 5% CO2. After 24h, media were supplemented by 100 µl/well of diluted test compound at variable final concentrations and incubated for 72 hours. Then, AlamarBlue® Reagent (Biosource DAL1100) was added to each well and incubated at 37°C for 4 hours. Relative fluorescent intensity that correlates with the number of living cells was read in a Cytofluor plate reader (Millipore) at 535/590 nm (Excitation/emission). After reading the AlamarBlue® signal, the hexosaminidase activitity was measured according to the following protocol: medium was removed and cells were washed once with PBS. 60 µl of substrate solution (p-nitrophenol-N-acetyl-beta-D-glucosaminide 7.5 mM [Sigma N-9376], sodium citrate 0.1 M, pH 5.0, 0.25% Triton X-1 00) was added to each well and incubated at 37°C for 1-2 hours; after this incubation time, a bright yellow colour appears; then, plates could be developed by adding 90 µl of developer solution (Glycine 50 mM, pH 10.4; EDTA 5 mM), and absorbance was recorded at 405 nm.
(§4) Note: In all cases assays were performed in Alamar Blue with the exception of those indicated (* = Hexosaminidase assay)

A549 = experiment: Cancer cell growth inhibition, 72 h treatment; format: cell-based; settings: Homo sapiens
Experimental: as §1, §2, §3, §4

BxPC-3 = experiment: Cancer cell growth inhibition, 72 h treatment; format: cell-based; settings: Homo sapiens
Experimental: as §1, §2, §3, §4

COLO 205 = experiment: Cancer cell growth inhibition, 72 h treatment; format: cell-based; settings: Homo sapiens, Colon cancer COLO 205, Alamar Blue
Experimental: as §1, §2, §3, §4

DU-145 = experiment: Cancer cell growth inhibition, 72 h treatment; format: cell-based; settings: Homo sapiens, Prostate cancer DU-145, Alamar Blue
Experimental: as §1, §2, §3, §4

Daoy = experiment: Cancer cell growth inhibition, 72 h treatment; format: cell-based; settings: Homo sapiens, Brain Daoy, Alamar Blue
Experimental: as §1, §2, §3, §4

HCT-116 = experiment: Cancer cell growth inhibition, 72 h treatment; format: cell-based; settings: Homo sapiens, Colon cancer HCT-116, Alamar Blue
Experimental: as §1, §2, §3, §4

HT-1080 = experiment: Cancer cell growth inhibition, 72 h treatment; format: cell-based; settings: Homo sapiens, Fibrosarcoma HT-1080, Alamar Blue
Experimental: as §1, §2, §3, §4

HT-29 = experiment: Cancer cell growth inhibition, 72 h treatment; format: cell-based; settings: Homo sapiens, Colon cancer HT-29, Alamar Blue
Experimental: as §1, §2, §3, §4

HeLa = experiment: Cancer cell growth inhibition, 72 h treatment; format: cell-based; settings: Homo sapiens, Cervical HeLa, Alamar Blue
Experimental: as §1, §2, §3, §4

K562 = experiment: Cancer cell growth inhibition, 72 h treatment; format: cell-based; settings: Homo sapiens, Hematologic K562, Alamar Blue
Experimental: as §1, §2, §3, §4

LS174T = experiment: Cancer cell growth inhibition, 72 h treatment; format: cell-based; settings: Homo sapiens, Colon cancer LS174T, Alamar Blue
Experimental: as §1, §2, §3, §4

LoVo = experiment: Cancer cell growth inhibition, 72 h treatment; format: cell-based; settings: Homo sapiens, Colon cancer LoVo, Alamar Blue
Experimental: as §1, §2, §3, §4

MCF-7 = experiment: Cancer cell growth inhibition, 72 h treatment; format: cell-based; settings: Homo sapiens, MCF7, Breast cancer MCF-7, Alamar Blue
Experimental: as §1, §2, §3, §4

MDA-MB-231 = experiment: Cancer cell growth inhibition, 72 h treatment; format: cell-based; settings: Homo sapiens, Breast cancer MDA-MB-231, Alamar Blue
Experimental: as §1, §2, §3, §4

MIA PaCa-2 = experiment: Cancer cell growth inhibition, 72 h treatment; format: cell-based; settings: Homo sapiens
Experimental: as §1, §2, §3, §4

NCI-H358 = experiment: Cancer cell growth inhibition, 72 h treatment; format: cell-based; settings: Homo sapiens, Lung cancer NCI-H358, Alamar Blue
Experimental: as §1, §2, §3, §4

RAMOS = experiment: Cancer cell growth inhibition, 72 h treatment; format: cell-based; settings: Homo sapiens, Hematologic RAMOS, Alamar Blue
Experimental: as §1, §2, §3, §4

SK-BR-3 = experiment: Cancer cell growth inhibition, 72 h treatment; format: cell-based; settings: Homo sapiens, Breast cancer SK-BR-3, Alamar Blue
Experimental: as §1, §2, §3, §4

SK-HEP-1 = experiment: Cancer cell growth inhibition, 72 h treatment; format: cell-based; settings: Homo sapiens, SK-HEP1, Liver cancer SK-HEP-1, Alamar Blue
Experimental: as §1, §2, §3, §4

SK-Mel-28 = experiment: Cancer cell growth inhibition, 72 h treatment; format: cell-based; settings: Homo sapiens, Melanoma SK-Mel-28, Alamar Blue
Experimental: as §1, §2, §3, §4

SW480 = experiment: Cancer cell growth inhibition, 72 h treatment; format: cell-based; settings: Homo sapiens
Experimental: as §1, §2, §3, §4

U-87 MG = experiment: Cancer cell growth inhibition, 72 h treatment; format: cell-based; settings: Homo sapiens, Brain U-87 MG, Hexosaminidase assay (*)
Experimental: as §1, §2, §3, §4

[2] = Pancreatic cancer BxPC-3, Alamar Blue
[3] = Pancreatic cancer MIA PaCa-2, Alamar Blue
[4] = Colon cancer SW480, Alamar Blue

Compound	pIC50 [1]	pEC50 (A431)	pEC50 (COLO 205)	pEC50 (DU-145)	pEC50 (Daoy)	pEC50 (HCT-116)	pEC50 (HT-1080)	pEC50 (HT-29)	pEC50 (HeLa)	pEC50 (K562)	pEC50 (LS174T)	pEC50 (LoVo)	pEC50 (MCF-7)	pEC50 (MDA-MB-231)	pEC50 (NCI-H358)	pEC50 (RAMOS)	pEC50 (SK-BR-3)	pEC50 (SK-HEP-1)	pEC50 (SK-Mel-28)	pEC50 (U-87 MG)	other results
CC(C)C[C@H](NC(=O)[C@@H]1N[C@H](c2ccccc2)[C@@H]([N+](=O)[O-])[C@@H]1c1ccccc1)B(O)O [Example 1, (R)-3-methyl-1-((2R,3R,4S,5R)-4-nitro-3,5-diphenylpyrrolidine-2-carboxamido)butylboronic acid]	7.41	6.01	4.96	5.72	5.89	5.72	5.77	5.46	4.55	5.20	6.14	5.17	6.15	5.29	6.10	5.62	5.92	6.31	5.89	4.92	inhibition at 0.1 µM ([1]; Concentration 100 nM): 73%; pEC50 (A549; Lung cancer A549, Alamar Blue): 5.15; pEC50 (BxPC-3; [2]): 5.34; pEC50 (MIA PaCa-2; [3]): 5.24; pEC50 (SW480; [4]): 5.96
CC(C)C[C@H](NC(=O)[C@H]1N[C@@H](c2ccccc2)[C@@H]([N+](=O)[O-])[C@@H]1c1ccccc1)B(O)O [Example 4, (R)-3-methyl-1-((2S,3R,4S,5S)-4-nitro-3,5-diphenylpyrrolidine-2-carboxamido)butylboronic acid]	7.34	6.01	5.42	5.92	5.89	5.89	5.77	5.82	5.08	5.70	6.26	5.51	4.64	5.68	5.62	6.00	6.12	6.54	6.11	5.38	inhibition at 0.05 µM [1]: 51%; pEC50 (A549; Lung cancer A549, Alamar Blue): 5.40; pEC50 (BxPC-3; [2]): 5.54; pEC50 (MIA PaCa-2; [3]): 5.52; pEC50 (SW480; [4]): 6.21
CC(C)C[C@H](NC(=O)[C@@H]1N[C@H](c2ccccc2)[C@@H]([N+](=O)[O-])[C@@H]1c1ccco1)B(O)O [Example 11, (R)-1-((2R,3R,4S,5R)-3-(furan-2-yl)-4-nitro-5-phenylpyrrolidine-2-carboxamido)-3-methylbutylboronic acid]	8.12	7.70	6.69	6.24	6.54	6.55	6.05	5.60	5.51	6.00	7.70	6.18	6.55	5.96	6.55	6.80	6.96	8.15	6.10	6.05	inhibition at 0.05 µM [1]: 81%; pEC50 (A549; Lung cancer A549, Hexosaminidase assay (*)): 5.89; pEC50 (BxPC-3; Pancreatic cancer BxPC-3, Hexosaminidase assay (*)): 6.15; pEC50 (MIA PaCa-2; Pancreatic cancer MIA PaCa-2, Hexosaminidase assay (*)): 6.07; pEC50 (SW480; Colon cancer SW480, Hexosaminidase assay (*)): 5.96
